Consider 5 molecules from ChEMBL document CHEMBL5465560, “Selectivity Literature for EUbOPEN Chemogenomic Library” (2024).

The target of experiment [1] is T1, Serine/threonine-protein kinase BRSK2 (Homo sapiens) (UniProt Q8IWQ3).
T1 sequence (whole entry): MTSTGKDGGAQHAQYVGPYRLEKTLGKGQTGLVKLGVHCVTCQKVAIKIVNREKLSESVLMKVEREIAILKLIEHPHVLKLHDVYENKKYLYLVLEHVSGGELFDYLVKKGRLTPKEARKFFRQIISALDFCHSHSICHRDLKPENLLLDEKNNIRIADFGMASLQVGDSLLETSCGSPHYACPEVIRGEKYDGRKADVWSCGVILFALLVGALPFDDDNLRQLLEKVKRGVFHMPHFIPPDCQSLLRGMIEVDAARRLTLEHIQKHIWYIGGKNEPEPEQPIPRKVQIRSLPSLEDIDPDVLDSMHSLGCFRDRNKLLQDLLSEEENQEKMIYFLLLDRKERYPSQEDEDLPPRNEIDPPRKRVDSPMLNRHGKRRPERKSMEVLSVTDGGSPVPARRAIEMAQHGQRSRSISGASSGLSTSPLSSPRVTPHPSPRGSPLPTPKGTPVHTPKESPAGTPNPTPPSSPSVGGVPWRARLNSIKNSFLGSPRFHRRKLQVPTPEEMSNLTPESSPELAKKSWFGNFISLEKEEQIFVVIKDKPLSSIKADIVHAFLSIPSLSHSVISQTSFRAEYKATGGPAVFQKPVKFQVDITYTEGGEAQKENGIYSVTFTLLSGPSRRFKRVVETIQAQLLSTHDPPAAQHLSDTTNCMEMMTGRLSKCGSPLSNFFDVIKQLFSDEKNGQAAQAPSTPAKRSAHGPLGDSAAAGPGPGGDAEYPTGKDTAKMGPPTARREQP
Put plainly: Selectivity interaction (KinomeScan (DiscoverX)) EUB0000666a BRSK2. As to conditions: at 10 µM.

Experiment [2] has as its target T2, Calcium/calmodulin-dependent protein kinase type IV (Homo sapiens) (UniProt Q16566).
T2 sequence (whole entry): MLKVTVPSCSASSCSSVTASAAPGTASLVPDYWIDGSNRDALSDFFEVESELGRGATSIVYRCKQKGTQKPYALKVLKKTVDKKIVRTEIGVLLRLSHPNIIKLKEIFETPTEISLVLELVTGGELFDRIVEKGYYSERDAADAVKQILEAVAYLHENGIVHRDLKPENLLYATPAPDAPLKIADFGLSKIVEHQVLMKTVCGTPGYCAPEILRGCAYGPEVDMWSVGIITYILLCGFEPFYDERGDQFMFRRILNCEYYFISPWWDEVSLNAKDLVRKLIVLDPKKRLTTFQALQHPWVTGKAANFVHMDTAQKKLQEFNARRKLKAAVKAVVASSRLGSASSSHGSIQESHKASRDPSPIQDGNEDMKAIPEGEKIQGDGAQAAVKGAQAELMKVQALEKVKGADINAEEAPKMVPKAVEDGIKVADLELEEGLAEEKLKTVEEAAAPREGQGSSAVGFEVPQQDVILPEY
In words: Selectivity interaction (KinomeScan (DiscoverX)) EUB0000666a CAMK4. The conditions noted are these: at 10 µM.

The target in experiment [3] is T3, MAP kinase-activated protein kinase 5 (Homo sapiens) (UniProt Q8IW41).
T3 sequence (whole entry): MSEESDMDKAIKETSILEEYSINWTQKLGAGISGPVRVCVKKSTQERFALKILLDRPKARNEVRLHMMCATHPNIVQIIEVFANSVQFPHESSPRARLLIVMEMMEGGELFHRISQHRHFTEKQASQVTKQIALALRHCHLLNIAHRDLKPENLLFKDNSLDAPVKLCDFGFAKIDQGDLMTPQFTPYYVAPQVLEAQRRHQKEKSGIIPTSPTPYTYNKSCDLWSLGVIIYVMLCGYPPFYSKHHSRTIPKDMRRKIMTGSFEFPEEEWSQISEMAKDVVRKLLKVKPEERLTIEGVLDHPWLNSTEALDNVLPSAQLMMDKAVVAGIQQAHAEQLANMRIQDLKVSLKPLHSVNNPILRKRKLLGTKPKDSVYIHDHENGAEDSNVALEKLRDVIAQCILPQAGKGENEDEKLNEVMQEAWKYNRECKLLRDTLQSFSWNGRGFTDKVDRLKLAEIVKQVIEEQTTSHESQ
Put plainly: Selectivity interaction (KinomeScan (DiscoverX)) EUB0000655a MAPKAPK5. The conditions noted are these: at 10 µM.

The target in experiment [4] is Phosphatidylinositol 4,5-bisphosphate 3-kinase catalytic subunit beta isoform (Homo sapiens) (UniProt P42338). In words: Selectivity interaction (KinomeScan (DiscoverX)) EUB0000877a PIK3CB. The conditions noted are these: at 10 µM.
The target in experiment [5] is Dual specificity mitogen-activated protein kinase kinase 1 (Homo sapiens, UniProt Q02750). In words: Selectivity interaction (KinomeScan (DiscoverX)) EUB0000695a MAP2K1. As to conditions: at 100 nM.
Experiment [6] addresses T4, NUAK family SNF1-like kinase 2 (Homo sapiens) (UniProt Q9H093).
T4 sequence (whole entry): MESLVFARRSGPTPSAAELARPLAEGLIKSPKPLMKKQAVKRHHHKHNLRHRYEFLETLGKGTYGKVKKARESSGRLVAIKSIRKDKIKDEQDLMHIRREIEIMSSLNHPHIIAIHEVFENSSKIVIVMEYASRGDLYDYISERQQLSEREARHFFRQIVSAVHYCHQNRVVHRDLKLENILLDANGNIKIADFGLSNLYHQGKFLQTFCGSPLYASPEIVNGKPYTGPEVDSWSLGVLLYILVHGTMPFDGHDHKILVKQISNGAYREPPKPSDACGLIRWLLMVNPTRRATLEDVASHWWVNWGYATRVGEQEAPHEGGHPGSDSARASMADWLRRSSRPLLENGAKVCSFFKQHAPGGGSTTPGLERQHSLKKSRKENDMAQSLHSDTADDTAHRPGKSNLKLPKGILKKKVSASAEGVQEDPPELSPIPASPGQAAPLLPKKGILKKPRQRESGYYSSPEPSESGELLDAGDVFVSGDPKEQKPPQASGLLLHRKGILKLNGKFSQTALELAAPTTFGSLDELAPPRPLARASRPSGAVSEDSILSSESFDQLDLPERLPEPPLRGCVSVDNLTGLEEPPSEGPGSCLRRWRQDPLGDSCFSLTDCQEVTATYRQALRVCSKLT
Put plainly: Selectivity interaction (KinomeScan (DiscoverX)) EUB0000045b NUAK2.

Phosphatidylinositol 4,5-bisphosphate 3-kinase catalytic subunit beta isoform (Homo sapiens), sequence (P42338 whole entry, looked up, canonical isoform): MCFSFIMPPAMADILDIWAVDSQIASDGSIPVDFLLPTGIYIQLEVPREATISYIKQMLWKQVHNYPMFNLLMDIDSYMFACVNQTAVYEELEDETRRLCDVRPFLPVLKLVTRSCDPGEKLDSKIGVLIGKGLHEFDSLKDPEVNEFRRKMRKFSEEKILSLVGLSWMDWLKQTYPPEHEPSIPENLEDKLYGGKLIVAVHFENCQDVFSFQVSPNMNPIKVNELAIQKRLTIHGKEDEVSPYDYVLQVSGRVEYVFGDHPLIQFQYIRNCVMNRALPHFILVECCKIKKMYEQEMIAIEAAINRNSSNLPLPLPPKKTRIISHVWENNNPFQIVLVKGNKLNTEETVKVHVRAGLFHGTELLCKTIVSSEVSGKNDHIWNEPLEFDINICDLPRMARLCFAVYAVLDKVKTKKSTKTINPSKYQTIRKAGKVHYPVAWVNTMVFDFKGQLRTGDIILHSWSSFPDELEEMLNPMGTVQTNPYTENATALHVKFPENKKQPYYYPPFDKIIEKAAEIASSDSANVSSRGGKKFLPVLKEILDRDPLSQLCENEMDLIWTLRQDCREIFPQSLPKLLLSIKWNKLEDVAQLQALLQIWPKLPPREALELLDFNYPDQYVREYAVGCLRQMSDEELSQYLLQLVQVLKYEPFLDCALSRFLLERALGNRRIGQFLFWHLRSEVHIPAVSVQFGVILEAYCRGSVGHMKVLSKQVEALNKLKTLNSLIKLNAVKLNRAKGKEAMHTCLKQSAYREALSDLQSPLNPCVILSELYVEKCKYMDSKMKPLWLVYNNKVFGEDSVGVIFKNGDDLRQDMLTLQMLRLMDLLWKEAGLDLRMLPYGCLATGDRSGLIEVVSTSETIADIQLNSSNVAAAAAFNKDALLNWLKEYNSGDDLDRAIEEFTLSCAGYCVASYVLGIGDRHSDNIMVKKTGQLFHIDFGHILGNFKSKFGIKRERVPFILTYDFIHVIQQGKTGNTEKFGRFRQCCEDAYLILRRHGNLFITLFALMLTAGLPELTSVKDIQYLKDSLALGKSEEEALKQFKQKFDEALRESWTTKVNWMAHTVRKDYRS
Dual specificity mitogen-activated protein kinase kinase 1, sequence (Q02750 whole entry): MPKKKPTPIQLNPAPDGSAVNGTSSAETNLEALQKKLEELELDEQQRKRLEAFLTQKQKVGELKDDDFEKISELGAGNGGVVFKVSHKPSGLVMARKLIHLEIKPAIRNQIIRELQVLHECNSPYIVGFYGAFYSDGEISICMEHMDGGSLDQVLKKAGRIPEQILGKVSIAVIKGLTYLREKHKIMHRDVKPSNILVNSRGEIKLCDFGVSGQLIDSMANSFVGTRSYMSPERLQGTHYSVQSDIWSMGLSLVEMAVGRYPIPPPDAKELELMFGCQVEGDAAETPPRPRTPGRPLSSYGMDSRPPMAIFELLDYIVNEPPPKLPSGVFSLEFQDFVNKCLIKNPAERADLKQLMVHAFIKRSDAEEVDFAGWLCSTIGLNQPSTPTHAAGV

For the molecule `O=C(NOC[C@H](O)CO)c1ccc(F)c(F)c1Nc1ccc(I)cc1F`, the % of control in experiment [1] and in experiment [2] was 100% in each case.

Consider `CN(C)CCOc1ccc(-c2nc(-c3ccncc3)c(-c3ccc4c(c3)CC/C4=N\O)[nH]2)cc1`, for which, in experiment [3], the % of control was 100%.

In experiment [4], `CCC(=O)N1CC[C@H](Nc2ncnc3c2CN(c2cnc(OC)c(C(F)(F)F)c2)CC3)C1` [LENIOLISIB] returned a % of inhibition of 98%. In experiment [5], `Cc1cc(F)c(C(=O)Nc2cccc(-c3nncn3C(C)C)n2)cc1-n1cnc(C2CC2)c1` had a % of control of 100%.

`C=CC(=O)Nc1cc(-n2c(=O)ccc3cnc4ccc(-c5ccc(NS(C)(=O)=O)cc5)cc4c32)ccc1C`: the % of control in experiment [6] (at 1 µM) and in experiment [6] (at 10 µM) was 100% in each case.
